# Results published in patent publication US20250019382A1, “NOVEL INHIBITORS OF CYCLIN-DEPENDENT KINASES” (Origenis Gmbh, priority 2021, published 2025).
# Molecular target: T1, CDK9/CyclinT1 (Homo sapiens, UniProt P50750)
# T1 construct: purchased ProQinase/Reaction Biology, USA #0371-0345-1
# Test: CDK9/T1 ADPGlo kinase assay
# Type: biochemical
# Details: CDK9/CyclinT1 6 nM, ATP 10 microM, PDKtide 40 microM, 120 min RT
# Description: The testing compound was evaluated in 12 concentrations in a 1:3 dilution series, starting from 5microM as the highest concentration.
# In a white 384 microplate (Greiner bio-one, Austria #784904,) with 2 microL of 3-fold concentrated CDK9/CyclinT1 (ProQinase/Reaction Biology, USA #0371-0345-1, LOT.: 012), final concentration (f.c.) 6 nM, in 1×kinase buffer, 2 microL of compound (3× fold concentrated in f.c. 1.66% DMSO/H2O) was added and incubated at Room Temperature (RT) for 10 min. Then 2 microL of Substrate/ATP-Mix (3×PDKtide f.c. 40 microM, SignalChem Biotech, Canada via Biozol, Eching, Germany #P10-58, LOT.: L2230-7 and 3×UltraPure ATP f.c. 10 microM (ADP Glo Kinase assay, Promega GmbH, Germany #V9102)) were added, mixed and incubated for 120 min at RT.
# After incubation time, 5 microL of ADP Glo reagent (ready to use, ADP Glo Kinase assay, Promega GmbH, Germany #V9102) were added, mixed and incubated for 40 min at RT.
# In the last step, 10 microL of ADP Glo Detection reagent (ready to use, ADP Glo Kinase assay, Promega GmbH, Germany #V9102) were added, mixed and incubated for 30 min at RT.
# GloMax Discover GM3000 Reader (Promega GmbH, Germany 9700000249) was used for the readout.
# The inhibitor concentration was plotted against the luminescence to determine the IC50 using XLFit 5.5 (IDBS, Guildford) to fit to a sigmoidal dose response curve with a variable slope.
# T1 sequence (P50750 whole entry): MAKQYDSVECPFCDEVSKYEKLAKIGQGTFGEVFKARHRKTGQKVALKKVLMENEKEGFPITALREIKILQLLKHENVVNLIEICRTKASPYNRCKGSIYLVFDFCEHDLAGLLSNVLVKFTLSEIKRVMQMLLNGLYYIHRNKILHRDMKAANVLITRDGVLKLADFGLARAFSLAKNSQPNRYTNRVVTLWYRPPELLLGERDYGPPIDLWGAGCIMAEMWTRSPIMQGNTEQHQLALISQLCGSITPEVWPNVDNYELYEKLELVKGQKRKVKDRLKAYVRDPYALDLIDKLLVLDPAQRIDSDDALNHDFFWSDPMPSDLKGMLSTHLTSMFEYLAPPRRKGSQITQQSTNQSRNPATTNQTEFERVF
# T1 sequence (O60563 whole entry partner): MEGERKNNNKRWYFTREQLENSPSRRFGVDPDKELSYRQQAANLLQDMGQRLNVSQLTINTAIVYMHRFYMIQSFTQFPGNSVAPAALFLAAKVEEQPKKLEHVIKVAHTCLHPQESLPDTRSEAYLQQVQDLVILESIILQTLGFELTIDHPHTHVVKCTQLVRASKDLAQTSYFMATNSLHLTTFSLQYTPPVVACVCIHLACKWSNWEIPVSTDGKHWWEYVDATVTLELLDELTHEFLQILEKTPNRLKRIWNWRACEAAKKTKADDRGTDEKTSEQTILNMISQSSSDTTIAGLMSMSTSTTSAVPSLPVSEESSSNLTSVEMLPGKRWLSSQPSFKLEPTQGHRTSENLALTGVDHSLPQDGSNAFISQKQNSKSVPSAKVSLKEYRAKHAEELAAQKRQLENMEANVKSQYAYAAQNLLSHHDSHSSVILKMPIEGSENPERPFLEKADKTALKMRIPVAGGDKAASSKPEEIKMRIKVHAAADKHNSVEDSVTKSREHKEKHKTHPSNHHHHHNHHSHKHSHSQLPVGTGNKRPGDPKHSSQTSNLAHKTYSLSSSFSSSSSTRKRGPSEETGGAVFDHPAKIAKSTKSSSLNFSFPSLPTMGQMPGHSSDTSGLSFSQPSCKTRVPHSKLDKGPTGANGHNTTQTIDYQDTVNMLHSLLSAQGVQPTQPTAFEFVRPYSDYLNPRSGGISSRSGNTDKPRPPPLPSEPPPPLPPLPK
row,SMILES,IC50 [nM]
1,"Fc1cccc(F)c1-c1nc(NC2CCC(N3CCOCC3)CC2)n2nccc2n1 (stereo not shown) [Example #70, 2-(2,6-difluorophenyl)-N-((1r,4r)-4-morpholinocyclohexyl)pyrazolo[1,5-a][1,3,5]triazin-4-amine]",< 20
2,"Fc1cccc(Cl)c1-c1nc(Nc2cnn(C3CCN(C4CCOCC4)CC3)c2)n2nccc2n1 [Example #71, 2-(2-chloro-6-fluorophenyl)-N-(1-(1-(tetrahydro-2H-pyran-4-yl)piperidin-4-yl)-1H-pyrazol-4-yl)pyrazolo[1,5-a][1,3,5]triazin-4-amine]",< 200
3,"Fc1cccc(F)c1-c1nc(Nc2cnn(C3CCN(C4CCOCC4)CC3)c2Cl)n2nccc2n1 [Example #73, N-(5-chloro-1-(1-(tetrahydro-2H-pyran-4-yl)piperidin-4-yl)-1H-pyrazol-4-yl)-2-(2,6-difluorophenyl)pyrazolo[1,5-a][1,3,5]triazin-4-amine]",< 1000
4,"Fc1cccc(F)c1-c1nc(Nc2cnn(C3CCNCC3)c2)n2nccc2n1 [Example #74, 2-(2,6-difluorophenyl)-N-(1-(piperidin-4-yl)-1H-pyrazol-4-yl)pyrazolo[1,5-a][1,3,5]triazin-4-amine]",< 200
5,"Fc1cccc(Cl)c1-c1nc(N[C@H]2CC[C@H](N3CCOCC3)CC2)n2nccc2n1 [Example #76, 2-(2-chloro-6-fluorophenyl)-N-((1r,4r)-4-morpholinocyclohexyl)pyrazolo[1,5-a][1,3,5]triazin-4-amine]",< 200
6,"Cc1cnn2c(Nc3cnn(C4CCN(C5CCOCC5)CC4)c3)nc(-c3c(F)cccc3F)nc12 [Example #77, 2-(2,6-difluorophenyl)-8-methyl-N-(1-(1-(tetrahydro-2H-pyran-4-yl)piperidin-4-yl)-1H-pyrazol-4-yl)pyrazolo[1,5-a][1,3,5]triazin-4-amine]",< 200
7,"Fc1cccc(F)c1-c1nc(Nc2cnn(C3CCN(CC4CC4)CC3)c2)n2nccc2n1 [Example #80, N-(1-(1-(cyclopropylmethyl)piperidin-4-yl)-1H-pyrazol-4-yl)-2-(2,6-difluorophenyl)pyrazolo[1,5-a][1,3,5]triazin-4-amine]",< 200
8,"FCCN1CCC(n2cc(Nc3nc(-c4c(F)cccc4F)nc4ccnn34)cn2)CC1 [Example #81, 2-(2,6-difluorophenyl)-N-(1-(1-(2-fluoroethyl)piperidin-4-yl)-1H-pyrazol-4-yl)pyrazolo[1,5-a][1,3,5]triazin-4-amine]",< 200
9,"COC(=O)N1CCC(n2cc(Nc3nc(-c4c(F)cccc4F)nc4ccnn34)cn2)CC1 [Example #82, methyl-4-(4-((2-(2,6-difluorophenyl)pyrazolo[1,5-a][1,3,5]triazin-4-yl)amino)-1H-pyrazol-1-yl)piperidine-1-carboxylate]",< 1000
10,"Fc1cccc(F)c1-c1nc(Nc2cnn(C3CCN(C4CC4)CC3)c2)n2nccc2n1 [Example #83, N-(1-(1-cyclopropylpiperidin-4-yl)-1H-pyrazol-4-yl)-2-(2,6-difluorophenyl)pyrazolo[1,5-a][1,3,5]triazin-4-amine]",< 200
11,"Fc1cccc(F)c1-c1nc(Nc2cnn(C3CCN(C4COC4)CC3)c2)n2nccc2n1 [Example #84, 2-(2,6-difluorophenyl)-N-(1-(1-(oxetan-3-yl)piperidin-4-yl)-1H-pyrazol-4-yl)pyrazolo[1,5-a][1,3,5]triazin-4-amine]",< 1000
12,"C=CCCN1CCC(n2cc(Nc3nc(-c4c(F)cccc4F)nc4ccnn34)cn2)CC1 [Example #87, N-(1-(1-(but-3-en-1-yl)piperidin-4-yl)-1H-pyrazol-4-yl)-2-(2,6-difluorophenyl)pyrazolo[1,5-a][1,3,5]triazin-4-amine]",< 200
13,"N#Cc1cnn2c(Nc3cnn(C4CCN(C5CCOCC5)CC4)c3)nc(-c3c(F)cccc3F)nc12 [Example #88, 2-(2,6-difluorophenyl)-4-((1-(1-(tetrahydro-2H-pyran-4-yl)piperidin-4-yl)-1H-pyrazol-4-yl)amino)pyrazolo[1,5-a][1,3,5]triazine-8-carbonitrile]",< 200
